The source made the active and inactive calls. Cut-off read from the data, not from the text of the source, for most assays here: actives have a measured EC50 and inactives only a lower limit.
Legend:
Streptococcus = test: Group A Streptococcus viability loss, dose response, counter-screen for streptokinase expression inhibitor project, luminescence, BacTiterGlo (AID 1915); assay type: functional, organism-based;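 note: potency for reduction of bacterial viability or growth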
Streptokinase A = molecular target: T1, Streptokinase A (Streptococcus pyogenes serotype M1, UniProt P10520); test: S. pyogenes streptokinase expression inhibitors, potency, dose response, plasminogen activation absorbance, OD405 (AID 1914); assay type: functional, Streptococcus pyogenes M1 GAS;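 note: secreted streptokinase activity via plasminogen activation per viability signal from cell pellet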
T1 sequence (P10520 whole entry): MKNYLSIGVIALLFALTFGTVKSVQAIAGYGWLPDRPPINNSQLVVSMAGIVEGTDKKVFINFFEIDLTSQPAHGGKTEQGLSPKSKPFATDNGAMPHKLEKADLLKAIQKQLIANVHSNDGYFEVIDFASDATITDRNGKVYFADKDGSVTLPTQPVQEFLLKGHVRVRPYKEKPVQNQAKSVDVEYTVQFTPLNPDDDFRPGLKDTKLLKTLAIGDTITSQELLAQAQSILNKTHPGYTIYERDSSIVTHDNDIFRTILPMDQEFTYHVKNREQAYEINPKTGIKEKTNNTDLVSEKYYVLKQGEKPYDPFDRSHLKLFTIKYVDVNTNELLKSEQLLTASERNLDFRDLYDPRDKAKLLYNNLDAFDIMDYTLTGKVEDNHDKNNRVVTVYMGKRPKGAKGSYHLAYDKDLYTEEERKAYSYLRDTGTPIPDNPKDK

[1] = test system: Streptococcus sp. 'group A'; test: growth inhibition of control SK(-) GAS strain, dose response, counter-screen for streptokinase expression inhibitor project, luminescence, kanamycin, BacTiterGlo, confirmation (AID 1900); assay type: functional, organism-based
[2] = Luminescence Cell-Based Dose Retest to Confirm Inhibitors of Cancer Stem Cells. [Related pubchem assays (depositor defined):AID2717, AID2721]; assay type: functional; details: Homo sapiens
[3] = Luminescence Cell-Based Dose Response HTS to Identify Inhibitors of 5'UTR Stem-Loop Driven Prion Protein mRNA Translation in H4 Neuroglioblastoma Cells. [Related pubchem assays: 1827 (Project Summary), 1813 (Primary HTS)]; assay type: functional
[4] = inhibitors of SNCA 5'UTR-driven reporter translation, confirmation, H4 neuroglioma cells, luminescence (AID 1988); assay type: functional, cell-based
[5] = inhibitors of firefly luciferase expression or activity, dose response, H4 neuroglioma cells, luminescence (AID 1990); assay type: functional, cell-based
[6] = HEp-2 cell cytotoxicity, dose response, cytotoxicity control for RSV inhibitor project, HTS (AID 2410); assay type: functional; details: human respiratory syncytial virus
INS1 = test: beta cell apoptosis inhibitors, cytokine rescue, dose response, luminescence, retest (AID 449756); assay type: functional, cell-based; details: Rattus norvegicus;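 note: cell death triggered by IL-1 beta plus TNF-alpha plus IFN-gamma mixture; protective hits raise ATP signal compared with cytokine alone wells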
[7] = inhibitors of intracellular T. cruzi replication, confirmation, NIH3T3 host cells, beta-gal luminescence (AID 2044); assay type: functional, cell-based;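 note: intracellular parasites grown in NIH/3T3 mouse fibroblasts as host cells; luminescent beta-galactosidase reporter signal from transgenic T. cruzi replicating inside host cells; inhibitors lower the luminescence signal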
[8] = cytotoxicity toward NIH3T3 fibroblasts, dose response, counter-screen, cell-based, ATP luminescence, mouse fibroblasts (AID 2010); assay type: functional;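 note: cells exposed to compound for about 90 hours before reading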

| Compound | EC50 (Streptococcus) | EC50 (Streptokinase A) | EC50 [1] | EC50 [3] | EC50 [4] | EC50 [5] | further results |
| --- | --- | --- | --- | --- | --- | --- | --- |
| Fc1ccccc1CNc1cc(Cl)cc(Cl)c1 | 17.8 µM (active) | > 150 µM (not active) | 9.65 µM (active) | – | – | – | – |
| N#C/C(=C\c1c[nH]c2ccc(Br)cc12)c1ccccn1 | > 150 µM (not active) | 51.6 µM (active) | 18.7 µM (active) | – | – | – | AC50 [2]: 2.25 µM (active) |
| S=C(NCc1ccco1)N1CCN(c2nc(-c3ccc(Cl)cc3)cs2)CC1 | 32.1 µM (active) | 36.4 µM (active) | 9.38 µM (active) | – | – | – | – |
| CCn1nc([N+](=O)[O-])c2c(-c3nc4ccccc4o3)c(N)n(CCCOC)c2c1=O | – | – | – | > 120 µM (not active) | > 120 µM (not active) | > 120 µM (not active) | – |
| O=C(NC1CCCCC1)NC1C2CC3CC(C2)CC1C3 (stereo not given) | > 150 µM (not active) | > 150 µM (not active) | > 150 µM (not active) | – | – | – | – |
| SC1=NC[C@H](CC2CCCCC2)N1CC1CCCCC1 | 19.6 µM (active) | 25.4 µM (active) | 12.6 µM (active) | – | – | – | – |
| Cn1nc(-c2ccccc2)c(CSc2cccc(Cl)c2)c1Cl | > 150 µM (not active) | 19.8 µM (active) | – | – | – | – | – |
| O=C(Nc1ccc(N2CCOCC2)cc1)c1cc2c(s1)CCCC2 | – | – | – | – | – | – | CC50 [6]: > 50 µM (active) |
| CCCCSc1nc2c(c(=O)n1CC)SC(C)C2 (stereo not given) | – | – | – | > 60 µM (not active) | > 120 µM (not active) | 15.3 µM (active) | – |
| COc1ccc(C(=O)CSc2nc(-c3ccccn3)nc(C)c2Cl)cc1 | 36.4 µM (active) | > 150 µM (not active) | 7.92 µM (active) | – | – | – | – |
| C/C(=N\NC(=O)C12CCC(C)(C(=O)O1)C2(C)C)c1ccccc1O (stereo not given) | – | – | – | 13.5 µM (active) | > 120 µM (not active) | 13.1 µM (active) | – |
| CC1=NC(C)=C(C(=O)OCCNC(=O)c2ccccc2O)C(c2ccccc2[N+](=O)[O-])/C1=C(\O)OCC1CCCO1 (stereo not given) | – | – | – | > 120 µM (not active) | 78.4 µM (active) | 17 µM (active) | AC50 (INS1): 40.6 µM (active) |
| Cc1cccc(NC(=S)/N=C(\N)Nc2nc(C)c3ccc(C)cc3n2)c1 | > 150 µM (not active) | > 150 µM (inconclusive) | 77.2 µM (active) | – | – | – | EC50 [7]: 2.12 µM (active); EC50 [8]: > 60 µM (not active) |
| S=C(Nc1cc(Cl)cc(Cl)c1)NC1CCN(Cc2ccccc2)CC1 | – | – | – | > 120 µM (not active) | 11.4 µM (active) | > 120 µM (not active) | AC50 [2]: 5.23 µM (active) |
| Cc1ccc(-c2ccnc3c(Cl)c(C)nn23)cc1 | – | – | – | > 120 µM (not active) | 13.7 µM (active) | > 120 µM (not active) | – |
| CN(C)c1ccc(-c2cc([C@H]3[C@@H]4C=CCC[C@@]4(C)C(=O)N3Cc3ccccc3)ccc2F)cc1 | – | – | – | – | – | – | CC50 [6]: 13.1 µM (active); AC50 [2]: 2.28 µM (active) |
| COC(=O)C1=C(C)N(c2cc(C)cc(C)c2)/C(=C/c2ccc(O)cc2)C1=O | – | – | – | – | – | – | CC50 [6]: 18.4 µM (active) |

Source: ChEMBL document CHEMBL1201862, “PubChem BioAssay data set” (2004)
